Data taken from ChEMBL document CHEMBL3425398, “(Dis)similar Analogues of Riboswitch Metabolites as Antibacterial Lead Compounds” (J Med Chem, 2015).
≈ marks a conversion by molar mass, not a printed value. Values belong to the molecule of their own block, whether it stands above or below them.

Tests used:
[1] = Activation of glmS riboswitch in Bacillus subtilis
[2] = Binding affinity to TPP riboswitch in Escherichia coli
[3] = Binding affinity to guanine riboswitch in Bacillus subtilis
[4] = Activation of glmS riboswitch in Staphylococcus aureus
Staphylococcus aureus [5] = experiment: Antibacterial activity against Staphylococcus aureus in rich cation-adjusted Muller-Hinton broth; format: functional
Staphylococcus aureus [6] = experiment: Antibacterial activity against Staphylococcus aureus in rich cation-adjusted Muller-Hinton broth in presence of 1.5 mM DTT; format: functional
[7] = Binding affinity to TPP riboswitch in Bacillus subtilis
[8] = Binding affinity to lysC riboswitch in Bacillus subtilis
Bacillus subtilis = experiment: Antibacterial activity against Bacillus subtilis in chemical defined medium; format: functional
[9] = Binding affinity to thiM riboswitch in Escherichia coli
[10] = Binding affinity to thiC riboswitch in Escherichia coli

- EC50 [1]: 200000 nM
SMILES: N[C@H]1C(O)O[C@H](COP(=O)(O)O)[C@@H](O)[C@@H]1O (stereo partly specified)

SMILES: Cc1ncc(Cn2cc(CCOP(=O)(O)OP(=O)(O)O)nn2)c(N)n1
- Kd [2]: 370 nM

- Kd [3]: 0.5 nM
SMILES: CC(=O)Nc1nc(=O)c2[nH]cnc2[nH]1

- Kd [3]: 20 nM
SMILES: Nc1nc2[nH]cnc2/c(=N\O)[nH]1

- EC50 [4]: 6200 nM
SMILES: N[C@@H]1[C@@H](O)[C@H](O)[C@@H](COP(=O)(O)O)C[C@@H]1O

SMILES: Cc1ncc(Cn2nnc(CCOP(=O)(O)CP(=O)(O)O)c2C)c(N)n1
- Kd [2]: 9 nM

SMILES: Nc1nc2[nH]cnc2c(=O)[nH]1 [GUANINE]
- Kd [3]: 5 nM

- Kd [3]: 100 nM
- MIC (Staphylococcus aureus [5]): 4000 µM (≈ 565 µg/mL)
- MIC (Staphylococcus aureus [6]): 14 µM
SMILES: Nc1nc(N)c(N)c(=O)[nH]1

- Kd [7]: 160 nM
SMILES: Cc1ncc(C[n+]2cccc(CCOP(=O)([O-])OP(=O)(O)O)c2C)c(N)n1

SMILES: NCCCC[C@H](N)C(=O)O [LYSINE]
- Kd [8]: 360 nM

- Kd [8]: 970 nM
SMILES: NC/C=C/CC(N)C(=O)O (racemic)

- Kd [8]: 7000 nM
SMILES: N=C(N)NCCCC[C@H](N)C(=O)O

- Kd [8]: 13000 nM
- MIC (Bacillus subtilis): 26 µM (≈ 3.85 µg/mL)
SMILES: NCCOC[C@H](N)C(=O)O

- Kd [8]: 30000 nM
- MIC (Bacillus subtilis): 26 µM (≈ 4.27 µg/mL)
SMILES: NCCSC[C@H](N)C(=O)O

- Kd [7]: 50 nM
SMILES: Cc1ncc(C[n+]2csc(CCOP(=O)([O-])OP(=O)(O)O)c2C)c(N)n1 [THIAMIN DIPHOSPHATE]
- Kd [9]: 600 nM
- Kd [10]: 100 nM
